Patent US4921849A, “Injection containing 3-benzoyloxy-1,3,5(10)-estratriene-17-[4-{p-(bis(2-chloroethyl)amino)phe nyl}butanoyloxy)acetate as an active ingredient” (priority 1987, dated 1990)

Tests used:
[1] = test system: Walker 256 carcino sarcoma; assay: Life span of rats bearing Walker 256 carcino sarcoma after injection from the femoral artery; format: in vivo, female Wistar rats; details: for elongated life time (T/C=test/control): control = physiological saline; for mean survival days (MST): right femoral artery, 8th or 9th day after transplantation
Protocol: A predetermined amount (shown in Table 1) of 3-benzoyloxy-1,3,5(10)-estratriene-17β-[4-{p-(bis(2-chloroethyl)amino)phenyl}butanoyloxy]acetate or adriamycin was added to 6.5 g of LIPIODOL® and the mixture was stirred for 15 minutes at 25° C. to obtain a solution as the injection of each active ingredient. Each solution was put into a sterilized vials.
A walker 256 carcino sarcoma (solid) of about 3 mm square in size was transplanted subcutaneously to the left brachial part and the left femoral part of each of female Wistar rats (the age of 6 weeks and one group consisting of 5 animals) of respective group.
On the 8th or 9th day after the transplantation, each of the injections prepared in Example 1 was injected into each rat of respective testing group from the right femoral artery by a catheter and physiological saline solution or 6.5 g of LIPIODOL® was injected into each rat of the control group or the LIPIODOL group in the same manner as above.
After having observed the state of the test animals, the mean survival days (MST) and the elongated life time (T/C=test/control) were calculated.

[2] = Acute toxicity in rats; format: in vivo
Protocol: Concerning an acute toxicity (LD50) of the present derivative, even when rats were administered orally with the maximum administrable amount (6,000 mg/kg), no death case has been observed and when rats were injected intraperitoneally in a form of sesame oil solution, its LD50 has been over 3,000 mg/kg. Accordingly, the present derivative is a medicine extremely high in safety. In a mean while, LD50 of LIPIODOL® has been 7,000 mg/kg when it was administered intravenously to rabbits.

[3] = Solubility in oils; format: physicochemical
[4] = test system: estradiol receptor; details: cited from earlier work
[5] = cited from earlier work
[6] = test system: cells; details: cited from earlier work
[7] = oral administration; cited from earlier work

| SMILES | elongated life time (T/C=test/control) ([1]; 100 mg in 6.5 g of LIPIODOL) [%] | mean survival days (MST) ([1]; 100 mg in 6.5 g of LIPIODOL) [days] | death cases (acute toxicity) ([2]; orally, maximum administrable amount 6,000 mg/kg) | LD50 ([2]; rat, in vivo, ip, intraperitoneally, sesame oil solution) [mg/kg] | solubility in ester of iodinated poppy oil fatty acid ([3]; ester of iodinated poppy oil fatty acid) | solubility in ordinary oils ([3]; ordinary oils) | affinity to the estradiol-receptor [4] | stability in vivo [5] | accumulation in cancer cells versus normal cells ([5]; in vivo) | decomposition/conversion within cells [6] | adsorption rate in intestines [7] | elongated life time (T/C=test/control) ([1]; 10 mg in 6.5 g of LIPIODOL) [%] | mean survival days (MST) ([1]; 10 mg in 6.5 g of LIPIODOL) [days] | stability in cells [6] |
| --- | --- | --- | --- | --- | --- | --- | --- | --- | --- | --- | --- | --- | --- | --- |
| C[C@]12CC[C@@H]3c4ccc(OC(=O)c5ccccc5)cc4CC[C@H]3[C@@H]1CC[C@@H]2OC(=O)COC(=O)CCCc1ccc(N(CCCl)CCCl)cc1 [present derivative, 3-benzoyloxy-1,3,5(10)-estratriene-17-[4-{p-(bis(2-chloroethyl)amino)phenyl}-butanoyloxy]acetate] | 234.3 | 41.0 | no death case | > 3000 | can be uniformly dissolved in the ester | does not completely dissolve in ordinary oils | scarcely any function as an alkylating agent and any affinity to the estradiol-receptor | relatively stable in vivo | accumulates in larger amount in cancer cells than in normal cells | hydrolyzed by an enzyme | low adsorption rate |  |  |  |
| COc1cccc2c1C(=O)c1c(O)c3c(c(O)c1C2=O)C[C@@](O)(C(=O)CO)C[C@@H]3O[C@H]1C[C@H](N)[C@H](O)[C@H](C)O1 [Adriamycin] | < 5.7 | < 1 |  |  |  |  |  |  |  |  |  | 140.7 | 24.5 |  |
| C[C@]12CC[C@@H]3c4ccc(O)cc4CC[C@H]3[C@@H]1CC[C@@H]2OC(=O)COC(=O)CCCc1ccc(N(CCCl)CCCl)cc1 [KM-2202, 3-hydroxy-1,3,5(10)-estratriene-17-[4-{p-(bis(2-chloroethyl)amino)phenyl}butanoyloxy]-acetate] |  |  |  |  |  |  | has an affinity to the estradiol receptor |  |  | decomposed slowly into estradiol and chlorambucil within cells |  |  |  | relatively unstable in cells |
